Earlier results as cited in patent US7300682B2, “Method of preparation and use of coconut water in mamalian tissue nourishment growth and healthy maintenance” (Sabinsa Corporation, priority 2000, dated 2007).

Test system: Abelmoschus esculetus L and Solanum gilo L
Conditions: 100 mg/L

SMILES: C=C1C[C@]23C[C@@]1(O)CC[C@H]2[C@@]12C=C[C@H](O)[C@@](C)(C(=O)O1)[C@H]2[C@@H]3C(=O)O [GA3, gibberelic acid]
- effect on plant height, yield, chlorophyll and vitamin contents: significantly effective
